What is called Km is the concentration of substrate that gives half-maximal velocity.

A short description of test [1]: Halogenase activity of Dsg205 and Dsg701 against 600 member compound library, LC-MSMS assay. The format is biochemical. The following applies: substrate of Dsg205/Dsg701, enzyme not specified.
The test system of a further test is Dsg407. Put plainly: Substrates accepted by Dsg407. Particulars: purified Dsg407, NaBr or NaI, pH 7.2.
For test [2], the system named is tryptophan 5-halogenase PyrH. Particulars: natural substrate tryptophan; based on product production; cited from earlier work.
The test system of test [3] is tryptophan 7-halogenase RebH. The following applies: natural substrate tryptophan; based on product production; cited from earlier work.

Take `Nc1cccc2cccnc12` [8-quinolamine]: in test [1], the “conversion of substrate, estimated” value is around 75%. Take `N[C@H](Cc1c[nH]c2ccccc12)C(=O)O` [D-tryptophan]: the “accepted as substrate by Dsg407” value in the test on Dsg407 is given as “accepts”. Regarding `c1cc2cc[nH]c2cn1` [Dsg 6-azaindole, 6-azaindole], the “accepted as substrate by Dsg407” value in the test with Dsg407 is “also a substrate of Dsg407”.

Take `N[C@@H](Cc1c[nH]c2ccccc12)C(=O)O` [L-tryptophan]: the “accepted as substrate by Dsg407” value in the test on Dsg407 is listed as “not”. Regarding `N[C@@H](Cc1c[nH]c2ccccc12)C(=O)O` [tryptophan], the Kcat in test [2] is 0.0417 ± 0.0067 s⁻¹. The Km in test [3] was 18.7 ± 1.3 µM.

Values taken from patent US12456543B2, “Enzymes” (UNIVERSITY COURT OF THE UNIVERSITY OF ST ANDREWS, priority 2018, dated 2025).
